# Tests used:
# PI3αKinase, p110α/p85α = system: T1, PI3αKinase, p110α/p85α; experiment: Inhibitor specificity against other enzymes: PI3Kα; format: biochemical
# T1 construct: purchased Promega
# From the text: (§1) Enzyme tested are protein serine/threonine/tyrosine, lipid, sugar, and inorganic kinases, and K/Na ATPase. […] PKA, protein kinase A (solid circle), PKCα (solid square), Src, protein tyrosine Src kinase (solid triangle), Acka, acetate kinase from Escherichia coli (solid reverse triangle), HK, hexokinase from Saccharomyces cerevisiae (solid circle), PI3αKinase, p110α/p85α (square), K/K ATPase, Adenosine 5´-Triphosphatase from porcine cerebral cortex (circle), CD39 (ATP substrate, triangle), and CD39 (ADP substrate, reverse triangle); for CD73 (triangle) in panel B. Each point represents average of a typical experiment done in triplicates; results shown are mean ± SD.
# CD39 (His-Tag Human) = target: T2, CD39 (His-Tag Human) (Homo sapiens, UniProt P49961); experiment: Enzyme activity of purified CD39 with ATP or ADP as substrate; format: biochemical; conditions: for inhibitory effect on purified CD39: 0.1ng CD39, 10 μM ATP or 10 μM ADP, 30min at 37°C
# T2 construct: His; purchased R&D Systems
# T2 sequence (P49961 1-510): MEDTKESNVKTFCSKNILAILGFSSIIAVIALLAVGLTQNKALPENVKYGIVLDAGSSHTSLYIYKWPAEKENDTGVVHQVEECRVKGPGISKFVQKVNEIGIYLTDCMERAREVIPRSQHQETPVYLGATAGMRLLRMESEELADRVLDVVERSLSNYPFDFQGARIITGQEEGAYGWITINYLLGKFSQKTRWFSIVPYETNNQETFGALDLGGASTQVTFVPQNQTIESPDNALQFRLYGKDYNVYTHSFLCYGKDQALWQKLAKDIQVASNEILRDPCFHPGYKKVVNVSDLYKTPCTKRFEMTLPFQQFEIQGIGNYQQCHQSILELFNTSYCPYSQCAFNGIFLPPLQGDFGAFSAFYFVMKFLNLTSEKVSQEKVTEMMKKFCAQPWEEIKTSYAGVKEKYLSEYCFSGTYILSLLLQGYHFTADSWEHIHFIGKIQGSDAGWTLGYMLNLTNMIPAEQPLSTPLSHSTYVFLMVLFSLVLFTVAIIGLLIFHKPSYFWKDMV
# Method: • 2 Determination of enzyme activity of purified cytosolic cN-II. Activity of purified cN-II (Human cytosolic 5'-Nucleotidase) was determined using 25μl reaction buffer (50mM HEPES, pH 7.0, 100mM KCl, 20mM MgCl2, 5mM DTT, 2.5mM dATP, and 0.1mg/ml BSA) containing enzyme and AMP substrate at 10μM (96-well format). Reaction continued at 37°C for 60 minutes or for a certain time period and terminated by the addition of equal volume (25μl) of AMP-Glo™ Reagent I. Reactions were mixed well and incubated for additional 30 min at 23°C. This was followed by the addition of 50 μl of AMP Detection Solution (10μl of AMP-Glo™ Reagent II per ml of Kinase-Glo® One Solution) and incubated for additional 60 min at 23°C before reading luminescence. • 3 Determination of enzyme activity of purified CD39. […] When ATP is used as a substrate, an equal volume of Kinase-Glo® One Solution was added to CD39 reactions and incubated for 15 min before reading luminescence using a luminometer. When ADP is used as a substrate for CD39, after enzyme reaction completion, an equal volume of AMP Detection Solution with a known CD39 known inhibitor, such as POM 1 at 50μM final concentration was added. Reactions were mixed well and incubated for 60min before reading luminescence using luminometer. For enzyme dilution, reaction buffer can be used for dilution of enzymes.
# PKA, protein kinase A = system: T3, PKA, protein kinase A; experiment: Inhibitor specificity against other enzymes: PKA; format: biochemical
# T3 construct: purchased Promega
# From the text: as §1
# PKCα = system: T4, PKCα; experiment: Inhibitor specificity against other enzymes: PKCα; format: biochemical
# T4 construct: purchased Promega
# From the text: as §1
# HK, hexokinase = experiment: Inhibitor specificity against other enzymes: hexokinase; format: biochemical, Saccharomyces cerevisiae
# From the text: as §1
# [1] = target: T5, Recombinant Human 5'-Nucleotidase/CD73 (Homo sapiens, UniProt P21589); experiment: Enzyme activity of purified CD73 (AMP-Glo assay); format: biochemical; conditions: for IC50: 0.1 ng CD73, 5min at 23°C
# T5 construct: purchased R&D Systems
# T5 sequence (P21589 27-574): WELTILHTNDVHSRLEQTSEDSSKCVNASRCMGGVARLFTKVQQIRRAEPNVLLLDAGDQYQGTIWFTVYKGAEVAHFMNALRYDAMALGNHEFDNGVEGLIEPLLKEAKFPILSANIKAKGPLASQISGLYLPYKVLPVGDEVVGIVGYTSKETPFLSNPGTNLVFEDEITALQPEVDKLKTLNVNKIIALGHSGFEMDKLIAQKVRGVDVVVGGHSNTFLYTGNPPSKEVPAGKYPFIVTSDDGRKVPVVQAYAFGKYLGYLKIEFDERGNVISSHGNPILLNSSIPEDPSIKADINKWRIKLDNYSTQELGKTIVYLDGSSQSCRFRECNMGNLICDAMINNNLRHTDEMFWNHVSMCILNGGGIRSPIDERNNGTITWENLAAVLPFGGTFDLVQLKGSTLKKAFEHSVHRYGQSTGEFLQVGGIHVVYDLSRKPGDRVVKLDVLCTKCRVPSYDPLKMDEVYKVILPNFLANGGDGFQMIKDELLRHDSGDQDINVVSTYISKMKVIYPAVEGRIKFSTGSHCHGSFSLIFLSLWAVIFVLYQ
# Method: • Determination of enzyme activity of purified CD73. In a 25 μl reaction buffer (10mM HEPES, pH 7.4, 2mM MgCl2, 1mM CaCl2, and 0.1mg/ml BSA) containing enzyme and AMP substrate at 1μM to 10μM (96-well format), enzyme activity was performed at 23°C for specified time period and terminated by the addition of equal volume (25μl) of AMP-Glo™ Reagent I containing 50 μM (final concentration) of known CD73 inhibitor, such as AMPCP. Reactions were mixed well and incubated for additional 30 min at 23°C. This was followed by the addition of 50 μl of AMP Detection Solution (10μl of AMP-Glo™ Reagent II per ml of Kinase-Glo® One Solution) and incubated for additional 60 min at 23°C before reading luminescence.
# [2] = system: T6, Src, protein tyrosine Src kinase; experiment: Inhibitor specificity against other enzymes: Src; format: biochemical
# T6 construct: purchased Promega
# From the text: as §1
# Acka, acetate kinase = system: T7, Acka, acetate kinase; experiment: Inhibitor specificity against other enzymes: acetate kinase; format: biochemical, Escherichia coli
# T7 construct: purchased Millipore Sigma
# From the text: as §1
# [3] = system: Adenosine 5'-Triphosphatase from porcine cerebral cortex (Na+/K+-ATPase)
# From the text: as §1
SMILES,"inhibition of PI3Kα (PI3αKinase, p110α/p85α)",inhibitory effect on purified CD39 (CD39 (His-Tag Human)),"inhibition of PKA (PKA, protein kinase A)",inhibition of PKCα (PKCα),"inhibition of hexokinase (HK, hexokinase)",IC50 ([1]; 5 μM AMP),IC50 ([1]; 10 μM AMP),inhibition of Src [2],"inhibition of acetate kinase (Acka, acetate kinase)",inhibition of K+/Na+-ATPase [3],"IC50 (CD39 (His-Tag Human); 10 μM ADP as substrate, 0.1 ng enzyme)","effect on CD73 enzyme activity ([1]; purified CD73, 0.1ng, 1μM AMP, 5 min at 23°C (Fig 6))"
"Nc1ncnc2c1ncn2[C@@H]1O[C@H](COP(=O)(O)CP(=O)(O)O)[C@@H](O)[C@H]1O [AMP-CP, Adenosine 5'-(α, β-methylene) diphosphate]",no inhibition,no inhibitory effect,minimal inhibition,no inhibition,no inhibition,0.157 µM,0.3 µM,no inhibition,no inhibition,no inhibition,–,–
"[Na+].[Na+].[Na+].[Na+].[Na+].[Na+].[O]=[W](=[O])([O-])[O-].[O]=[W](=[O])([O-])[O-].[O]=[W](=[O])([O-])[O-].[O]=[W](=[O])=[O].[O]=[W](=[O])=[O].[O]=[W](=[O])=[O].[O]=[W](=[O])=[O].[O]=[W](=[O])=[O].[O]=[W](=[O])=[O].[O]=[W](=[O])=[O].[O]=[W](=[O])=[O].[O]=[W](=[O])=[O] [POM1, Sodium metatungstate]",inhibited,inhibited,inhibited,inhibited,inhibited,–,–,inhibited,inhibited,inhibited,3.7 µM,no effect
